# From patent publication US11590139B2, “Substituted aminopurine compounds, compositions thereof, and methods of treatment therewith” (Signal Pharmaceuticals, LLC, priority 2014, dated 2023)
# Test system: Lox-IMVI melanoma cell line
# Assay: Lox-IMVI anti-proliferative assay (growth inhibition, Cell Titer-Glo)
# Type: cell-based, human
# Conditions: Homo sapiens; IC50 activity level in the cell-based Lox-IMVI anti-proliferative assay; read-out: Activity
# Experimental: Determination of the Growth Inhibitory Effect of Aminopurine Compounds. The Lox-IMVI melanoma cell line (Source: NCI-DCTD, catalog No. 0507283) was maintained and tested in RPMI+10% FBS. The seeding density for the cell line was optimized to ensure assay linearity in 384-well plates.
# Increasing concentrations of Aminopurine Compound (0.5 nM to 10 μM) were spotted in a 10-point serial dilution fashion (3-fold dilution) in duplicate within the plate via an acoustic dispenser (EDC ATS-100) into an empty 384-well plate. The dimethyl sulfoxide (DMSO) concentration was kept constant for a final assay concentration of 0.2% DMSO. Prior to testing, cells were grown and expanded in culture flasks to provide sufficient amounts of starting material. Cells were then diluted to their desired densities and added directly to the compound-spotted 384-well plates. Cells were allowed to grow for 72 hours in 5% CO2 at 37° C. At the time when exposure of cells to compound began (t0), initial cell number was assessed via a viability assay (Cell Titer-Glo) by quantifying the level of luminescence generated by adenosine-5′-triphosphate (ATP) present in viable cells. After 72 hours, cell viability of compound-treated cells was assessed via Cell Titer-Glo Luminescent Cell Viability Assay (Promega Corporation, Madison, Wis.) and read for luminescence.
# All data was normalized and represented as a percentage of the DMSO-treated control cells after 72 h. Results were expressed as a IC50 value, which is the compound concentration required to inhibit 50% of the untreated control cells during the 72 hours of treatment.
# A Four Parameter Logistic Model (Sigmoidal Dose-Response Model) was used to determine the compound's IC50. y=(A+((B−A)/(1+((C/x)^D))))
# wherein: • A=YMin • B=YMax • C=EC50 • D=Hill Slope • IC50 is the compound concentration when Y=50% of DMSO control • Y=Luminescence unit
# All inhibition curves were processed and evaluated using XLFit and Activity Base (IDBS).
row,Structure (SMILES),IC50 [µM]
1,"Cc1cc(Cl)c(Nc2nc3cnc(NC4CCOCC4)nc3n2[C@H]2CC[C@@H](C(N)=O)CC2)cc1Cl [Example 80, (1s,4s)-4-(8-(2,5-dichloro-4-methylphenylamino)-2-(tetrahydro-2H-pyran-4-ylamino)-9H-purin-9-yl)cyclohexanecarboxamide]",0.5 to 1
2,"NC(=O)[C@H]1CC[C@@H](n2c(Nc3ccc(F)c(Cl)c3Cl)nc3cnc(NC4CCOCC4)nc32)CC1 [Example 81, (1s,4s)-4-(8-(2,3-dichloro-4-fluorophenylamino)-2-(tetrahydro-2H-pyran-4-ylamino)-9H-purin-9-yl)cyclohexanecarboxamide]",> 1
3,"NC(=O)[C@H]1CC[C@@H](n2c(Nc3ccc(Cl)c(F)c3Cl)nc3cnc(NC4CCOCC4)nc32)CC1 [Example 82, (1s,4s)-4-(8-(2,4-dichloro-3-fluorophenylamino)-2-(tetrahydro-2H-pyran-4-ylamino)-9H-purin-9-yl)cyclohexanecarboxamide]",> 1
4,"Cc1ccc(Nc2nc3cnc(NC4CCOCC4)nc3n2[C@H]2CC[C@@H](C(N)=O)CC2)c(F)c1F [Example 83, (1s,4s)-4-(8-(2,3-difluoro-4-methylphenylamino)-2-(tetrahydro-2H-pyran-4-ylamino)-9H-purin-9-yl)cyclohexanecarboxamide]",0.5 to 1
5,"Cc1ccc(Nc2nc3cnc(NC4CCOCC4)nc3n2[C@H]2CC[C@@H](C(N)=O)CC2)c(Cl)c1F [Example 84, (1s,4s)-4-(8-(2-chloro-3-fluoro-4-methylphenylamino)-2-(tetrahydro-2H-pyran-4-ylamino)-9H-purin-9-yl)cyclohexanecarboxamide]",0.5 to 1
6,"Cc1ccc(Nc2nc3cnc(NC4CCOCC4)nc3n2[C@H]2CC[C@@H](C(N)=O)CC2)c(Cl)c1Cl [Example 85, (1s,4s)-4-(8-(2,3-dichloro-4-methylphenylamino)-2-(tetrahydro-2H-pyran-4-ylamino)-9H-purin-9-yl)cyclohexanecarboxamide]",> 1
7,"Cc1cc(F)cc(F)c1Nc1nc2cnc(NC3CCOCC3)nc2n1[C@H]1CC[C@@H](C(N)=O)CC1 [Example 86, (1s,4s)-4-(8-(2,4-difluoro-6-methylphenylamino)-2-(tetrahydro-2H-pyran-4-ylamino)-9H-purin-9-yl)cyclohexanecarboxamide]",> 1
8,"NC(=O)[C@H]1CC[C@@H](n2c(Nc3c(Cl)cc(Cl)cc3Cl)nc3cnc(N[C@H]4CCOC4)nc32)CC1 [Example 87, (1R,4s)-4-(2-((S)-tetrahydrofuran-3-ylamino)-8-(2,4,6-trichlorophenylamino)-9H-purin-9-yl)cyclohexanecarboxamide]",0.5 to 1
9,"NC(=O)[C@H]1CC[C@@H](n2c(Nc3c(Cl)cc(Cl)cc3Cl)nc3cnc(NC4CCC(F)(F)CC4)nc32)CC1 [Example 88, (1s,4s)-4-(2-(4,4-difluorocyclohexylamino)-8-(2,4,6-trichlorophenylamino)-9H-purin-9-yl)cyclohexanecarboxamide]",0.5 to 1
10,"Cc1c(Nc2nc3cnc(NC4CCOCC4)nc3n2[C@H]2CC[C@@H](C(N)=O)CC2)ccc(Cl)c1F [Example 89, (1s,4s)-4-(8-(4-chloro-3-fluoro-2-methylphenylamino)-2-(tetrahydro-2H-pyran-4-ylamino)-9H-purin-9-yl)cyclohexanecarboxamide]",> 1
11,"NC(=O)[C@H]1CC[C@@H](n2c(Nc3c(F)ccc(F)c3Cl)nc3cnc(NC4CCOCC4)nc32)CC1 [Example 90, (1s,4s)-4-(8-(2-chloro-3,6-difluorophenylamino)-2-(tetrahydro-2H-pyran-4-ylamino)-9H-purin-9-yl)cyclohexanecarboxamide]",0.25 to 0.5
12,"Cc1ccc(F)c(Nc2nc3cnc(NC4CCOCC4)nc3n2[C@H]2CC[C@@H](C(N)=O)CC2)c1Cl [Example 91, (1s,4s)-4-(8-(2-chloro-6-fluoro-3-methylphenylamino)-2-(tetrahydro-2H-pyran-4-ylamino)-9H-purin-9-yl)cyclohexanecarboxamide]",> 1
